Article PMC4460250, “Systems Pharmacology Dissecting Holistic Medicine for Treatment of Complex Diseases: An Example Using Cardiocerebrovascular Diseases Treated by TCM” (Evidence-based Complementary and Alternative Medicine : eCAM, 2015)

Columns and labels:
[1] = in vivo
[2] = in vivo; cited from earlier work

SMILES	Class(High: HIA value ≥0.7; Low: HIA value < 0.7) [1]	HIA(Human Intestinal Absorption) [2]
C[C@H](C(=O)O)c1cccc(Oc2ccccc2)c1 [Fenoprofen(S)]	High (key: High: HIA value ≥0.7; Low: HIA value < 0.7)	0.85
CCCC(CCC)CCC[C@@H]1COCCN1CCO [Delmopinol(R)]	High (key: High: HIA value ≥0.7; Low: HIA value < 0.7)	0.95
CCOC(=O)C1=C(C)NC(C)=C(C(=O)OC)[C@@H]1c1cccc([N+](=O)[O-])c1 [Nitrendipine(S)]	High (key: High: HIA value ≥0.7; Low: HIA value < 0.7)	0.88
COc1ccc(CCN(C)CCCN2CCc3cc(OC)c(OC)cc3CC2=O)cc1OC [Zatebradin]	High (key: High: HIA value ≥0.7; Low: HIA value < 0.7)	0.79
CCN(CC)CC[C@@]1(c2ccccc2)CCC(=O)NC1=O [Phenglutarimide(R)]	High (key: High: HIA value ≥0.7; Low: HIA value < 0.7)	1
CC[C@@H](C(N)=O)N1CCCC1=O [Levetiracetam(S)]	High (key: High: HIA value ≥0.7; Low: HIA value < 0.7)	1
NC[C@H]1O[C@H](O[C@H]2[C@H](O)[C@@H](O[C@H]3O[C@H](CO)[C@@H](O)[C@H](N)[C@H]3O)[C@H](N)C[C@@H]2N)[C@H](O)[C@@H](O)[C@@H]1O [Kanamycin]	Low (key: High: HIA value ≥0.7; Low: HIA value < 0.7)	0.01
CCN1CCC[C@H]1CNC(=O)c1c(OC)ccc(Br)c1OC [Remoxipride(S)]	High (key: High: HIA value ≥0.7; Low: HIA value < 0.7)	1
CC[C@H](C)[C@H]1O[C@]2(CC[C@@H]1C)C[C@@H]1C[C@@H](C/C=C(\C)[C@@H](O[C@H]3C[C@H](OC)[C@@H](O[C@H]4C[C@H](OC)[C@@H](O)[C@H](C)O4)[C@H](C)O3)[C@@H](C)/C=C/C=C3\CO[C@@H]4[C@H](O)C(C)=C[C@@H](C(=O)O1)[C@]34O)O2 [Ivermectin]	Low (key: High: HIA value ≥0.7; Low: HIA value < 0.7)	0.6
CC(C)NC[C@@H](O)c1cc(O)cc(O)c1 [Metaproterenol(S)]	Low (key: High: HIA value ≥0.7; Low: HIA value < 0.7)	0.43
C[C@H](NC(C)(C)C)C(=O)c1cccc(Cl)c1 [Bupropion(S)]	High (key: High: HIA value ≥0.7; Low: HIA value < 0.7)	0.87
Cn1c(=O)c2c(ncn2CCCNC[C@H](O)c2cc(O)cc(O)c2)n(C)c1=O [Reproterol(R)]	Low (key: High: HIA value ≥0.7; Low: HIA value < 0.7)	0.6
C[C@@H](CN1c2ccccc2Sc2ccccc21)N(C)C [Promethazine(S)]	High (key: High: HIA value ≥0.7; Low: HIA value < 0.7)	0.95
CCCC(CCC)CCC[C@H]1COCCN1CCO [Delmopinol(S)]	High (key: High: HIA value ≥0.7; Low: HIA value < 0.7)	0.95
C[C@@H](NC(C)(C)C)C(=O)c1cccc(Cl)c1 [Bupropion(R)]	High (key: High: HIA value ≥0.7; Low: HIA value < 0.7)	0.87
COC(=O)C1=C(C)NC(C)=C(C(=O)OCCN(C)Cc2ccccc2)[C@@H]1c1cccc([N+](=O)[O-])c1 [Nicardipine(R)]	High (key: High: HIA value ≥0.7; Low: HIA value < 0.7)	0.95
CN(Cc1cnc2nc(N)nc(N)c2n1)c1ccc(C(=O)NC(CCC(=O)O)C(=O)O)cc1 (stereo in doubt) [Methotrexate(R)]	High (key: High: HIA value ≥0.7; Low: HIA value < 0.7)	1
COc1cc2nc(N3CCN(C(=O)[C@@H]4COc5ccccc5O4)CC3)nc(N)c2cc1OC [Doxazosin(S)]	High (key: High: HIA value ≥0.7; Low: HIA value < 0.7)	1
CC(C)(Oc1ccc([C@H]2CC2(Cl)Cl)cc1)C(=O)O [Ciprofibrate(R)]	High (key: High: HIA value ≥0.7; Low: HIA value < 0.7)	0.99
O=C(c1ccccc1)c1ccc2n1CC[C@@H]2C(=O)O [Ketorolac(S)]	High (key: High: HIA value ≥0.7; Low: HIA value < 0.7)	0.95
CC(C)(C)NC[C@@H](O)c1ccc(O)c(CO)n1 [Pirbuterol(R)]	Low (key: High: HIA value ≥0.7; Low: HIA value < 0.7)	0.6

SMILES	Class(High: HIA value ≥0.7; Low: HIA value < 0.7) [1]	HIA(Human Intestinal Absorption) [2]
CC(=O)Oc1ccc2c3c1O[C@H]1[C@@H](OC(C)=O)C=C[C@H]4[C@@H](C2)N(C)CC[C@@]341 [Diacetylmorphine]	High (key: High: HIA value ≥0.7; Low: HIA value < 0.7)	1
CC[C@@]1(c2ccc(N)cc2)CCC(=O)NC1=O [Aminoglutethimide(S)]	High (key: High: HIA value ≥0.7; Low: HIA value < 0.7)	1
CCC1(CCC(C)C)C(=O)NC(=O)NC1=O [Amobarbital]	High (key: High: HIA value ≥0.7; Low: HIA value < 0.7)	0.95
COc1c(N2CCN[C@@H](C)C2)c(F)cc2c(=O)c(C(=O)O)cn(C3CC3)c12 [Gatifloxacin(S)]	High (key: High: HIA value ≥0.7; Low: HIA value < 0.7)	0.96
C[C@H](c1cc2ccccc2s1)N(O)C(N)=O [Zileuton(R)]	High (key: High: HIA value ≥0.7; Low: HIA value < 0.7)	1
CN(C)CC[C@H](c1ccccc1)c1ccccn1 [Pheniramine(R)]	High (key: High: HIA value ≥0.7; Low: HIA value < 0.7)	0.99
N=C(N)NC[C@@H]1COC2(CCCCC2)O1 [Guanadrel(R)]	High (key: High: HIA value ≥0.7; Low: HIA value < 0.7)	0.8
N[C@H](CO)C(=O)NNCc1ccc(O)c(O)c1O [Benserazide(R)]	High (key: High: HIA value ≥0.7; Low: HIA value < 0.7)	0.7
COc1ccc(Cc2nccc3cc(OC)c(OC)cc23)cc1OC [Papaverine]	High (key: High: HIA value ≥0.7; Low: HIA value < 0.7)	0.9
CCCNC(=O)NS(=O)(=O)c1ccc(Cl)cc1 [Chorpropamide]	High (key: High: HIA value ≥0.7; Low: HIA value < 0.7)	0.95
CCN(CC)[C@@H](C)C(=O)c1ccccc1 [Diethylpropion(S)]	High (key: High: HIA value ≥0.7; Low: HIA value < 0.7)	0.95
NS(=O)(=O)c1cc2c(cc1Cl)N[C@H](CC1CCCC1)NS2(=O)=O [Cyclopenthiazide(S)]	High (key: High: HIA value ≥0.7; Low: HIA value < 0.7)	1
CCN1CCC[C@@H]1CNC(=O)c1cc(S(=O)(=O)CC)ccc1OC [Sultopride(R)]	High (key: High: HIA value ≥0.7; Low: HIA value < 0.7)	0.89
COc1ccc([C@@H](CN(C)C)C2(O)CCCCC2)cc1 [Venlafaxine(S)]	High (key: High: HIA value ≥0.7; Low: HIA value < 0.7)	0.95
OCCN1CCN(CC/C=C2/c3ccccc3Sc3ccc(C(F)(F)F)cc32)CC1 [Flupentixol]	High (key: High: HIA value ≥0.7; Low: HIA value < 0.7)	1
CC(C)NC[C@@H](O)COc1cccc2[nH]ccc12 [Pindolol(R)]	High (key: High: HIA value ≥0.7; Low: HIA value < 0.7)	0.9
CC(C)(C)NC[C@H](O)c1ccc(O)c(CO)c1 [Albuterol(R)]	High (key: High: HIA value ≥0.7; Low: HIA value < 0.7)	0.83
COc1ccc([C@H](CN(C)C)C2(O)CCCCC2)cc1 [Venlafaxine(R)]	High (key: High: HIA value ≥0.7; Low: HIA value < 0.7)	0.95
CC(Cc1ccc(O)cc1)NCC(O)c1cc(O)cc(O)c1 (stereo not shown) [Fenoterol]	Low (key: High: HIA value ≥0.7; Low: HIA value < 0.7)	0.6
C[C@@H](CN(C)C)CN1c2ccccc2CCc2ccccc21 [Trimipramine(S)]	High (key: High: HIA value ≥0.7; Low: HIA value < 0.7)	0.8
